In patent US20200385396A1, “Compond for treatment or prevention of obesity or diseases related to obesity, and application thereof” (SHANGHAI INSTITUTES FOR BIOLOGICAL SCIENCES, CHINESE …, priority 2017, published 2020):

Tests used:
Type in all cases: in vivo, mouse
[1] = tested on: OB/OB obese model mice; test: Weight loss in OB/OB obese model mice
Source text: (§1) All animal experiments were approved by the Animal Management Committee of SIBCB. C57BL/6 mice were purchased from Lingchang company (normal mice and high-fat diet-induced obese mice), C57/BLJ6 (NUCB2 gene knockout mice for breeding and background purification) were purchased from Lingchang company, OB/OB mice were purchased from Slack company. A high-fat diet (45% kcal, D12451) for inducing obese mice was purchased from Research Diets. Starting from the sixth week, it was fed with high-fat diet for 14-25 weeks. The rest of the mice used normal diet (13.5% kcal). The mice were housed in the SPF grade animal house of SIBCB. The lights were turned off for 12 hours (19: 00-07: 00), and the lights were turned on for 12 hours (07: 00-19: 00).
(§2) Mice were intraperitoneally injected with DMSO or HLY72 (dissolved in DMSO) 25 μL within 2 hours before turning off the lamp. During the intragastric experiment, the high concentration of HLY72 dissolved in DMSO was dissolved in 10% cyclodextrin, and the total volume was 100 μL Volume by gavage, so that the final concentration of DMSO was less than 10%. The diet was weighed at the 3rd hour, the 6th hour, the 12th hour, and the 24th hour respectively after the lights out. The corresponding mouse body weight was also weighed at the same time before the daily administration. The fat content of mice was measured with the magnetic resonance fat content measuring instrument of the animal platform in SIBCB.
After obtaining the above results, we now begin to use the small molecule HLY72 in obese mouse models. We first chose the obese mouse model (OB/OB) caused by Leptin mutation. An important reason for the persistence of obesity is the resistance and tolerance to regulatory factors such as Insulin and Leptin. And we are very pleased with the fact that NUCB2 can reduce the food intake of Leptin receptor mutant Zucker rats. In this regard, we can reasonably speculate that the small molecule HLY72 should also have an effect on OB/OB mice. Sure enough, the injection of HLY72 has a significant weight loss effect on OB/OB mice.

[2] = tested on: high-fat-induced obese mice; test: Weight loss in high-fat-induced obese mice, periodic intermittent administration; conditions: 20 mg/kg
Source text: as §1, §2
According to the previous results, it is considered that HLY72 should not be used continuously for a long time. In view of the fact that many mechanisms of NUCB2 functioning are still unclear, the simplest intermittent drug administration method was selected, that is, the drug was administered for 3 days, stopped for 4 days, one dosing cycle per week, and repeated for 3 courses (FIG. 10a).
In the high-fat-induced obese mouse model, three days after the first injection of HLY72, the body weight of the mice is decreased from 33.56±0.63 g to 31.61±0.74 g, and three days after the second administration, the body weight of mice is decreased from 31.23±0.57 g to 29.36±0.58 g, three days after the third administration, the body weight of mice is decreased from 29.39±0.51 g to 27.80±0.62 g, at the end of 21 days after 3 cycles, the overall weight of the mice is decreased from 33.56±0.63 g to 27.65±0.54 g (FIG. 10b). The whole process corresponds to 16.88%±0.51% of the total weight loss (FIG. 10c).

[3] = tested on: mice fed with high-fat diet; test: Paired feeding experiment in metabolic cage; conditions: 20 mg/kg
Protocol: Mice fed with high-fat diet (8 mice per group) are placed in a metabolic cage for 3 days and injected with 20 mg/kg of HLY72 or DMSO once a day. Half of the mice in the DMSO group are paired with the HLY72 group. The average daily food intake (A), energy dissipation (B), respiratory exchange rate (C), physical activity (D) (E) of the three groups of mice after the three-day metabolic cage experiment is completed, the weight of the three groups of mice.
Before starting the metabolic cage experiment, the mice were fed in a single cage for 1 week. After a one-week single cage adaptation period, three days before the start of the small molecule compound injection, the mice were injected with 25 μL of DMSO within 2 hours before turning off the lights every afternoon, allowing them to adapt to the injection for 3 days. After 3 days of injection, the acclimated mice were put into the metabolic cage. Starting from the same day, 25 μL of DMSO and HLY72 (20 mg/kg) were injected within 2 hours before turning off the lights for 3 consecutive days.
Next, the HLY72 injection group and their paired feeding group are compared. The DMSO-injected mice were divided into two groups. The first group was free to get enough food, while the other group was provided the same amount of food as the HLY72 group daily. […] Compared with the DMSO group, the energy expenditure of the HLY72 group and its paired feeding group are decreased day and night. There is no difference in energy expenditure between the HLY72 group and its paired feeding group during the day and night (FIG. 14b).

[4] = tested on: normal mice; test: Body weight and daily food intake of normal mice under repeated dosing; conditions: for body weight after treatment / daily food intake compared with the control group / reduction in total body weight / body weight before treatment: normal mice; for body weight before treatment: start
Protocol: as §2
After screening better small-molecule compound and probably determining its key groups, whether HLY72 has a weight-loss effect has become the most wanted result immediately. For this problem, we directly used normal mice intraperitoneally injected with HLY72 for 5 consecutive days.
In order to further investigate whether the administration of HLY72 by oral gavage also has a weight-loss effect, and because of the convenience of oral administration, many drugs are taken orally. We have also considered one step more for future applications, so that the administration of oral gavage was used to see the effect of HLY72 on the body weight of normal mice. The same was 20 mg/kg HLY72 intragastric treatment for 5 days.
After confirming that HLY72 can indeed reduce the weight of mice, we examine two more questions: (1) Whether HLY72's weight-reducing effect is dose-dependent; (2) Whether HLY72-like molecule HLY103 not binding to NUCB2 has a weight-reducing effect. […] We also do the statistics on the daily food intake of the mice in these three days, which is consistent with the conclusion of the short-term statistics in the previous day.

[5] = OB/OB mice, 20 mg/kg injection, 7 consecutive days
[6] = intraperitoneal 20 mg/kg, 5 consecutive days

Compound: C=Cc1cccc2c1N(C)Cc1cc3c(cc1-2)OCO3 [HLY72]
- urine of mice ([1]; OB/OB mice injected with HLY72): significantly reduced
- daily food intake compared with the DMSO group ([1]; OB/OB mice, 20 mg/kg injection): significantly reduced
- body weight after treatment [1, 5]: 37.73 ± 0.87 g
- reduction in total body weight [1, 5]: 10.15%±0.87%
- body weight before treatment ([1]; OB/OB mice, 20 mg/kg injection, start): 42.02 ± 1.01 g
- average daily food intake in the three administration periods compared with the DMSO group [2]: significant decrease
- overall weight at the end of 21 days after 3 cycles ([2]; 3 cycles): 27.65 ± 0.54 g
- body weight before the first administration ([2]; 3 days on / 4 days off, start): 33.56 ± 0.63 g
- body weight three days after the first injection ([2]; course 1): 31.61 ± 0.74 g
- body weight before the second administration ([2]; course 2): 31.23 ± 0.57 g
- body weight three days after the second administration ([2]; course 2): 29.36 ± 0.58 g
- body weight before the third administration ([2]; course 3): 29.39 ± 0.51 g
- body weight three days after the third administration ([2]; course 3): 27.80 ± 0.62 g
- total weight loss ([2]; whole process, 21 days, 3 cycles): 16.88%±0.51%
- body weight, difference to paired feeding group [3]: no significant difference
- physical activity compared with the DMSO group and the paired feeding group [3]: significantly reduced
- body weight ([3]; after three-day metabolic cage): decreased significantly
- energy expenditure compared with the DMSO group ([3]; day and night): decreased
- energy expenditure, difference to paired feeding group ([3]; day and night): no difference
- respiratory exchange rates compared with the paired feeding group and the DMSO group ([3]; night and day): significantly reduced
- effect on body weight / weight loss ([4]; intraperitoneal, 3 consecutive days, HLY72 10 and 20 mg/kg, HLY103 20 mg/kg): concentration gradient
- body weight after treatment [4, 6]: 23.37 ± 0.36 g
- daily food intake compared with the control group [4, 6]: significantly reduced
- reduction in total body weight [4, 6]: 9.21%±0.74%
- body weight before treatment ([4]; intraperitoneal 20 mg/kg): 25.73 ± 0.29 g
- body weight after treatment ([4]; oral gavage 20 mg/kg, 5 days): 23.14 ± 0.45 g
- daily food intake compared with the control group ([4]; oral gavage 20 mg/kg, 5 days): decreased significantly
- reduction in total body weight ([4]; oral gavage 20 mg/kg, 5 days): 8.43%±0.81%
- body weight before treatment ([4]; oral gavage 20 mg/kg): 25.26 ± 0.37 g
